The term MIC denotes the lowest concentration found to suppress growth. Read a low MIC as a more susceptible organism. By pIC50 is commonly meant the negative decadic logarithm of the IC50, by convention in mol/L.

Data set [1] relates to Mycobacterium tuberculosis. The experiment in a line: Antitubercular activity against Mycobacterium tuberculosis H37Rv after 7 days by alamar blue assay. Conditions: 168 h. The data set is classed as functional. (The colour change of resazurin is a common sign of viable cells or microbes.)
A further data set deals with Mycobacteroides chelonae. The experiment in a line: Antibacterial activity against Mycobacterium chelonae after 7 days by alamar blue assay. It counts as functional. The following applies: 168 h.
Data set [2] relates to Mycobacteroides abscessus. Description: Antibacterial activity against Mycobacterium abscessus after 7 days by alamar blue assay. It counts as functional. The following applies: 168 h.
In the next data set the test system is Staphylococcus aureus. Description: Antibacterial activity against Staphylococcus aureus ATCC 29213 after 24 hrs. The following applies: ATCC 29213, 24 h. The data set is classed as functional.
In another data set the test system is Pseudomonas aeruginosa. Description: Antibacterial activity against Pseudomonas aeruginosa ATCC 27853 after 24 hrs. It counts as functional. The following applies: ATCC 27853, 24 h.
The subject of the next data set is MCF7. Description: Cytotoxicity against human MCF7 cells after 24 hrs by MTT assay. The data set is classed as functional, cell-based. Conditions: MCF7, 24 h. (In general: Formazan colour is commonly taken as a measure of viable cells.)
The test system of a further data set is Escherichia coli. Description: Antibacterial activity against Escherichia coli ATCC 25922 after 24 hrs. The following applies: ATCC 25922, 24 h. The data set is classed as functional.
For data set [3], the system named is Mycolicibacterium fortuitum. Description: Antibacterial activity against Mycobacterium fortuitum after 7 days by alamar blue assay. It counts as functional. The following applies: 168 h.
The nature of data set [4]: Selectivity index, ratio of IC50 for CHOK1 cells to MIC for Mycobacterium tuberculosis H37Rv. It counts as toxicity. The following applies: hamster, read-out: Selectivity Index.
The nature of data set [5]: Selectivity index, ratio of IC50 for HEK cells to MIC for Mycobacterium tuberculosis H37Rv. It counts as toxicity. Conditions: human, read-out: Selectivity Index.
The next data set concerns A549. Description: Cytotoxicity against human A549 cells after 24 hrs by MTT assay. It counts as functional, cell-based. The following applies: A549, 24 h.
The next data set deals with Klebsiella pneumoniae. Description: Antibacterial activity against Klebsiella pneumoniae ATCC BAA-1705 after 24 hrs. It counts as functional. Conditions: ATCC BAA-1705, 24 h.
The next data set relates to HeLa. The experiment in a line: Cytotoxicity against human HeLa cells after 24 hrs by MTT assay. The data set is classed as functional, cell-based.
The next data set has as its system HepG2. Description: Cytotoxicity against human HepG2 cells after 24 hrs by MTT assay. It counts as functional, cell-based. The following applies: HepG2, 24 h.
The nature of data set [6]: Cytotoxicity against HEK cells after 24 hrs by MTT assay. The data set is classed as cell-based. The following applies: Homo sapiens, HEK293, 24 h.
The test system of a further data set is CHO-K1. The experiment in a line: Cytotoxicity against CHOK1 cells after 24 hrs by MTT assay. The following applies: Cricetulus griseus, CHO-K1, 24 h. It counts as cell-based.
A further data set deals with DU-145. Description: Cytotoxicity against human DU145 cells after 24 hrs by MTT assay. The following applies: DU-145, 24 h. It counts as functional, cell-based.
Data set [7] can be described thus: Cytotoxicity against […] B16 cells after 24 hrs by MTT assay. It counts as functional, cell-based. Conditions: B16, 24 h.
The subject of a further data set is Acinetobacter baumannii. Description: Antibacterial activity against Acinetobacter baumannii ATCC BAA-1605 after 24 hrs. It counts as functional. The following applies: ATCC BAA-1605, 24 h.
Data set [8] relates to Mycobacterium tuberculosis. The experiment in a line: Antitubercular activity against Mycobacterium tuberculosis H37Rv assessed as microbial killing at 4 fold MIC incubated for 6 days by MPN assay. The data set is classed as functional, organism-based.
The subject of data set [9] is Mycobacterium tuberculosis. Description: Antitubercular activity against Mycobacterium tuberculosis H37Rv after 6 days by alamar blue assay. It counts as functional. Conditions: 144 h.

The structures appear in SMILES notation. pIC50: −log10 of the molar value. Converted amounts (≈) assume the structure as drawn.

For `Cc1nc(C)c(C(=O)N(c2cccc(C)c2C)C(C(=O)NC2CCCCC2)c2cccnc2)s1` (configuration not stated), the MIC in [1] is 0.78 µM (≈ 0.372 µg/mL); in the data set on Mycobacteroides chelonae, more than 50 µM; in data set [2], more than 50 µM; in the data set on Staphylococcus aureus, more than 50 µM; in the data set with Pseudomonas aeruginosa, more than 50 µM; against Escherichia coli it was more than 50 µM. Besides, the MIC (in data set [3]; against Klebsiella pneumoniae; with Acinetobacter baumannii) was more than 50 µM in each case. Also, the negative logarithm of the IC50 (pIC50) in the data set with MCF7 was 5.19; in the data set with A549 it was 5.06; in the data set with HeLa it was 5.02; with HepG2 it was 4.85; in data set [6], 4.09; in the data set with CHO-K1, 3.97. Further, the figures for the pIC50 (with DU-145; in [7]) were 5.00 and 4.87, respectively. Moreover, the selectivity ratio in data set [4] stood at 136; in [5], 104. Further, the Activity entry in data set [8] is “Dose-dependent effect”.
Consider `Cc1cccc(N(C(=O)C2CCCCN2)C(C(=O)NC2CCCCC2)c2ccccc2)c1C` (configuration not stated), for which the minimum inhibitory concentration (MIC) in [1] is 3.12 µM (≈ 1.4 µg/mL); in the data set with Mycobacteroides chelonae, more than 50 µM; in data set [2] it was more than 50 µM; in the data set on Staphylococcus aureus, more than 50 µM; against Pseudomonas aeruginosa, more than 50 µM; with Escherichia coli it was more than 50 µM. Further, the minimum inhibitory concentration (MIC) (in [3]; with Klebsiella pneumoniae; against Acinetobacter baumannii) was more than 50 µM throughout. In addition, the negative logarithm of the IC50 (pIC50) in the data set with MCF7 is 5.48; in the data set with A549 it was 5.01; in the data set on HeLa it was 4.99; in the data set on HepG2, 4.98; in data set [6] it was 3.76; in the data set on CHO-K1 it was 4.26. In addition, the figures for the negative logarithm of the IC50 (pIC50) (in the data set with DU-145; in [7]) were 5.05 and 4.78, respectively. For the same compound, the selectivity ratio in data set [4] turned out to be 4.3; in [5], 55.7.
As for `Cc1nc(C)c(C(=O)N(c2cccc(C)c2C)C(C(=O)NC2CCCCC2)c2ccncc2)s1` (configuration not stated), the MIC in data set [1] was 1.56 µM (≈ 0.744 µg/mL); against Mycobacteroides chelonae, more than 50 µM; in [2], more than 50 µM; in the data set on Staphylococcus aureus it was more than 50 µM; in the data set with Pseudomonas aeruginosa, more than 50 µM; in the data set with Escherichia coli, more than 50 µM. Besides, the MIC (in data set [3]; against Klebsiella pneumoniae; in the data set on Acinetobacter baumannii) was more than 50 µM each time. For the same compound, the negative-log IC50 (pIC50) in the data set on MCF7 was 5.35; with A549, 5.18; with HeLa, 4.98; with HepG2 it was 4.84; in data set [6], 4.31; in the data set with CHO-K1, 4.14. In addition, the negative logarithm of the IC50 (pIC50) in the data set on DU-145 was 4.96; in data set [7] it was 4.94. Besides, the selectivity ratio in [4] was 45.5; in data set [5], 31.4.
Regarding `Cc1nc(C)c(C(=O)N(c2cccc(C)c2C)C(C(=O)NC2CCCCC2)c2ccccc2)s1` (configuration not stated), the MIC in data set [1] was 12.5 µM (≈ 5.95 µg/mL); in the data set with Mycobacteroides chelonae, more than 50 µM; in data set [2], more than 50 µM; in the data set with Staphylococcus aureus, more than 50 µM; with Pseudomonas aeruginosa, more than 50 µM; with Escherichia coli it was more than 50 µM. For the same compound, the MIC is more than 50 µM in data set [3], more than 50 µM with Klebsiella pneumoniae, more than 50 µM in the data set with Acinetobacter baumannii and 12.5 µM (≈ 5.95 µg/mL) in data set [9]. The negative logarithm of the IC50 (pIC50) with MCF7 is 4.96; with A549, 4.90; in the data set on HeLa, 5.08; with HepG2, 5.03; in [6] it was 4.46; in the data set with CHO-K1 it was 4.56. Also, the values for the negative logarithm of the IC50 (pIC50) (with DU-145; in data set [7]) were 4.90 and 4.81, respectively. For the same compound, the selectivity ratio in data set [4] is 2.1.

(Values after ChEMBL document CHEMBL4422644, “Synthesis and evaluation of α-aminoacyl amides as antitubercular agents effective on drug resistant tuberculosis” (Eur J Med Chem, 2019).)
